Data from patent publication US12503426B2, “Synthetic derivatives of oleoyl-lysophosphatidylinositol (oleoyl-LPI) and uses thereof” (LIPOVEXA SRL, priority 2017, dated 2025).

Assays:
ERK = ERK phosphorylation by Western blot, Glutag cells; format: cell-based, murine; details: time course over 2 hours
Experimental: When cell cultures reached 80-90%, media were removed and cells were washed twice with 1×PBS. The cells were lysed in 150 μl (for one well of a 6 well plate) of Triton X-100 lysis buffer, containing phosphatase inhibitor cocktail (1:1000) (Sigma Aldrich, UK) and protease inhibitor (1:1000, Sigma Aldrich, UK). Cells were detached with scrapers and lysate were collected and centrifuged at 10,000 rpm, 4° C. for 5 minutes. The supernatant was then transferred to a 1.5 ml microcentrifuge tube and used for protein quantification. Cell lysates were stored at −20° C. for longer storage. All lysates were prepared on ice.
Non-specific antibody binding was prevented by incubating the nitrocellulose membrane in 5% milk in PBS-0.05% Tween-20 (v/v) for 30 minutes on a rotating plate. The membrane was then washed in PBS-0.05% Tween-20 (v/v) and then incubated with the primary antibody diluted in PBS-0.05% Tween-20 (v/v) on a rotating plate overnight at 4° C. After 24 hours, the membrane was washed 5× for 5 minutes with PBS-0.05% Tween-20 (v/v), and then incubated on a rotating plate with the appropriate secondary antibody for 1 hour at room temperature. […]

[1] = tested on: colonic cells of the GI tract obtained from guinea pig; experiment: Ex vivo GLP-1 biosynthesis and secretion, guinea pig GI tract cells; format: cell-based
Method in brief: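 Colonic/rectal crypts and cells from a pregnant guinea pig, collagenase-P digested and cultured one day on Matrigel, then exposed 2 h at 37 °C in serum-free DMEM with KR-62436 10 μg/ml and compound (20 μM, quadruplicate; EC50 also determined). Active GLP-1 in supernatant measured by ELISA, normalised to DMSO control.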

Glutag cells = experiment: GLP-1 secretion by Glutag cells; format: cell-based, murine; details: 2 hours
Method in brief: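 Murine GLUTag and human NCI-H716 L-cells were incubated 2 h in FBS-free DMEM with LPI species, OEA or LPC, with optional 1 h pretreatment with PD98059 (50 μM) or H89 (10 μM). Total medium GLP-1 was measured by ELISA and normalised to basal control secretion.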

**Q.** Which results are given for “oleoyl-lysophosphatidylinositol [oleoyl-LPI]”?
**A.** p-ERK, time course (ERK): increased p-ERK within 10 min and sustained a high level for 120 min; GLP-1 biosynthesis and secretion ex vivo ([1]; 20 μM, 2 hours, standardized against DMSO control): stimulated biosynthesis and secretion; EC50 ([1]; ex vivo incubation 2 hours, quadruplicates): 32.7 µM; GLP-1 secretion (Glutag cells; Glutag cells, normalised as percentage of cells treated with vehicle (control)): 126±5%; effect of down-regulation of GPR55 on GLP-1 secretion (Glutag cells; siGPR55 transfected Glutag cells, oleoyl-LPI 20 μM): no effect on GLP-1 secretion; GLP-1 secretion in siGPR119-transfected cells (Glutag cells; siGPR119 transfected Glutag cells, oleoyl-LPI 20 μM): significantly reduced the GLP-1 secretion to the basal level
